Reference: patent US12115174B2, “Dendrimer formulations” (AstraZeneca AB, priority 2018, dated 2024)

How the values were obtained:
Format in all cases: in vivo
[1] = test system: human acute lymphoblastic leukemia cells (RS4:11); experiment: RS4:11 Acute Lymphoblastic Leukemia xenograft efficacy in SCID mice
Protocol: The efficacy evaluation of the vehicle (phosphate buffer saline), Compound A (formulated in 30% HP-β-CD, pH 4), Compound 1 in PBS (equivalent to 10 mg/kg Compound A) and Compound 2 in PBS (equivalent to 10 mg/kg and 30 mg/kg Compound A) is shown.
The efficacy evaluation of the vehicle (phosphate buffer saline, PBS), a formulation of Compound A in 30% HP-β-CD, Compound 1 in PBS (equivalent to 20 mg/kg Compound A) and Compound 2 in PBS (equivalent to 20 mg/kg Compound A) and is shown.
Preparation of Compounds 1 and 2 PBS formulations for dosing RS4:11 efficacy study: The appropriate amounts of Compound 1 and 2 were weighed into a volumetric flask. 10 mL Dulbecc's Phosphate Buffered Saline (PBS) was added and formulations were then stirred until the compound dissolved entirely.
The appropriate amount of Compound A was weighed into a 10 mL volumetric flask. 8 mL of 30% w/v HP-β-CD vehicle was then added and the formulation stirred. 1M MSA was added dropwise until the pH was reduced to about 2. The formulation was then stirred until the compound dissolved entirely. The pH was measured and adjusted to pH 4, dropwise using 1M MSA or NaOH. The formulation was then stirred to make sure a clear solution (with possible haze) was obtained. The volume was then made up to 10 mL with 30% w/v HP-β-CD vehicle and stirred. The final pH was measured and recorded and the formulation filtered through a […] filter prior to administration. Other formulation strengths were prepared by diluting the Compound A in 30% w/v HP-β-CD with an appropriate amount of 30% w/v HP-β-CD vehicle.
Efficacy of Compounds 1 and 2 in RS4:11 Xenograft Model: 5×10^6 RS4; 11 cells in a total volume of 100 μL were inoculated subcutaneously at the mouse right flank. […]
(§1) On specific day, for each treated group, calculate Inhibition value by formula: Inhibition %=(CG-TG)*100/(CG-1), in which “CG” means the geometric mean of rtv of the control group and “TG” means the Geometric Mean of Relative Tumor Volume (rtv) of the treated group. “CG” should use the corresponding control group of the treated group when calculated. […]

[2] = test system: Cleaved poly ADP ribose polymerase (PARP); experiment: Cleaved PARP response (cell death) after a single dose; details: Compound A in HP-β-CD formulation
Protocol: Cleaved poly ADP ribose polymerase (PARP) response was used as a measure of cell death.
Additionally, cell death (apoptosis) was measured using cleaved PARP (FIG. 4).

SuDHL-4 = SuDHL-4 xenograft model in SCID mice, alone and with rituximab
Protocol: Formulations of Compound 1 for SuDHL-4 efficacy study: Compound 1 was formulated in a pH 5 citrate/phosphate buffer diluted 1:10 with 5% glucose and containing 1% w/v Kolliphor HS-15, at concentrations up to 105 mg/mL of Compound 1 (equivalent to up to 30 mg/mL of Compound A concentration).
Formulations of Compound 2 for dosing in SuDHL-4 efficacy study: Compound 2 was formulated in a pH 4 citrate/phosphate buffer diluted 1:10 with 5% Glucose and containing 1% w/v Kolliphor HS-15, at concentrations up to 121 mg/mL of Compound 2 (equivalent of up to 30 mg/mL of Compound A concentration).
Compounds 1 and 2 enhance inhibition of tumor growth by rituximab in SuDHL-4 Xenograft Model in SCID Mice: The SuDHL-4 xenograft model was used to test the ability of Compounds 1 and 2 to enhance the activity of rituximab in inhibiting tumor growth. […]
Tumor sizes were measured 2 times a week and calculated as: Tumor Volume=(A×B^2)/2 where A and B are the tumor length and width (in mm), respectively.
as §1

Molecule	% Inhibition Day (47) ([1]; Compound A 5 mg/kg) [%]	% Regression Day(47) ([1]; Compound A 5 mg/kg) [%]	regression ([1]; Compound A HP-β-CD 10 mg/kg IV once) [%]	time of cleaved PARP induction post treatment [2]	T − C (SuDHL-4; rituximab 10 mg/kg alone) [days]	% Inhibition (TIC) Day(41) (SuDHL-4; rituximab 10 mg/kg i.p. once a week for 5 weeks) [%]
CN(CCO)CC[C@H](CCSc1ccccc1)CNc1ccc(S(=O)(=O)NC(=O)c2ccc(N3CCC([C@@H](O)c4ccccc4-c4ccc(Cl)cc4)CC3)cc2)cc1S(=O)(=O)C(F)(F)F [Compound A, reference compound]	>100	90	90	immediately post treatment 1 and 3 hr		
rituximab [reference compound]					>16	75.27
